Laboratory results reported in patent publication US6703020B1 (Board of Regents, The University of Texas System, priority 1999, dated 2004).

What was measured:
VEGFR2 (KDR/Fc) = test: Coprecipitation assay, VEGF with VEGFR2/Fc; assay type: binding; conditions: 40 ng VEGF, 200 ng receptor/Fc
Experimental: 200 ng of soluble forms of VEGFR1 (Flt-1/Fc) or VEGFR2 (KDR/Fc, R&D Systems, Minneapolis, Minn.) were added for a total volume of 50 μl and incubated for 2 hrs. The receptor/Fc constructs were precipitated using Protein A-sepharose beads and the resulting precipitate was washed 4 times with binding buffer.
Reducing sample buffer was added to the pellet and supernatant of each reaction and both were analyzed by 12% SDS-PAGE and transferred to PVDF membranes. […] The soluble receptor/Fc constructs were also detected by using peroxidase-conjugated goat anti-human Fc (Kirkegaard & Perry Laboratories, Inc.)
The receptor/Fc constructs were precipitated by incubation with Protein A sepharose beads. The precipitate was washed and resuspended in reducing sample buffer and separated by 12% SDS-PAGE and transferred to PVDF.

HT1080 fibrosarcoma = test: In vivo tumor therapy of established HT1080 xenografts; design: species or system mouse; conditions: 100 μg every two days
Experimental: (§1) Male nu/nu mice bearing subcutaneous NCI-H358 tumors or HT1080 fibrosarcoma 200-400 mm^3 in size were injected i.p. with test or control antibodies. The NCI-H358 bearing mice were treated with 100 μg of antibodies per injection three times a week during the first week and twice a week during the second and third week. The mice were then switched to 50 μg per injection every five days. The HT1080 bearing mice were treated with 100 μg of the indicated antibody or saline every other day throughout the duration of the study. In both studies, mice were sacrificed when their tumors reached 2500 mm^3 in size or earlier if tumors began to ulcerate.

NCI-H358 NSCLC tumors = test: In vivo tumor therapy of established NCI-H358 xenografts; design: species or system mouse
Experimental: as §1
Doses were 50-100 μg every 3-5 days. […] In addition to measuring mean tumor volume (FIG. 4), photographs of the mice from each treatment group were also taken to show the differences in tumor size and appearance at the end of the study.

[1] = tested on: A673 rhabdomyosarcoma and LS174T colon adenocarcinoma tumors; test: Treatment of mice with established A673 and LS174T tumors; assay type: in vivo, mouse
A673 rhabdomyosarcoma = test: In vivo tumor growth inhibition, newly implanted A673; design: species or system mouse; conditions: 100 μg i.p. 2 times per wk from day 1, nu/nu mice; controls approximately 1000 mm^3
Experimental: (§2) Nu/nu mice were injected subcutaneously with either 1×10^7 NCI-H358 NSCLC cells or 5×10^6 A673 rhabdomyosarcoma cells on day 0. […] The tumors were then measured twice per wk for a period of approximately six wk for the NCI-H358 bearing mice and four wk for the A673 bearing mice. Tumor volume was calculated according to the formula: volume=L×W×H, where L=length, W=width, H=height.

[2] = tested on: mouse VEGF in mouse 3LL Lewis Lung carcinoma tumor sections; test: Immunohistochemistry on mouse 3LL tumor sections; assay type: binding; design: key: −, negative; +/−, very weak; 1+, weak; 2+, moderate; 3+, strong; 4+, very strong; conditions: acetone fixed frozen sections; 2C3 and 12D7 at 20 μg/ml, others 5-10 μg/ml
Experimental: (§3) Tumors were snap frozen in liquid nitrogen and stored at −70° C. Frozen samples of tumor specimens from patients were obtained from the National Cancer Institute Cooperative Human Tissue Network (Southern Division, Birmingham, Ala.). Immununohistochemistry was performed as described by Burrows et al. (1995).
(§4) Tumors examined through immunohistochemistry were human tumors of various types from cancer patients, transplantable human tumor xenografts of various types grown in mice, guinea pig Line 10 tumor grown in guinea pig, and mouse 3LL tumor grown in mice (see legend to Table 3 for details).

VEGFR2 (KDR/Flk-1) = test: ELISA of VEGF binding to VEGFR2-coated wells; design: species or system mouse
KDR on ABAE cells = test: 125I-VEGF binding studies on KDR expressing endothelial cells; assay type: cell-based, bovine
VEGFR1 (FLT-1) = test: ELISA of VEGF binding to VEGFR1-coated wells
[3] = tested on: NCI-H358 NSCLC and HT29 colon adenocarcinoma xenografts; test: In vivo localization to human tumor xenografts in mice; design: species or system mouse; key to Immunohistochemical Reactivity Heart / Immunohistochemical Reactivity Lung / Immunohistochemical Reactivity Liver / Immunohistochemical Reactivity Kidney / Immunohistochemical Reactivity Intestine / Immunohistochemical Reactivity Spleen / Immunohistochemical Reactivity Tumor: −, negative; +/−, very weak; 1+, weak; 2+, moderate; 3+, strong; 4+, very strong
Experimental: Tumors were grown subcutaneously in immunocompromised mice (NCI-H358 NSCLC in nu/nu mice and HT29 colon adenocarcinoma in SCID mice) until the tumor volume was approximately 1 cm^3. 100 μg of unlabeled antibody for studies using SCID mice, or 100 μg of biotinylated antibody for studies using nude mice, was injected intravenously via a tail vein. Twenty four hours later, the mice were anesthetized, perfused with PBS, and tumor and organs including heart, lungs, liver, kidneys, intestines and spleen were collected and snap frozen in liquid nitrogen.
The tumor and organs from each mouse were sectioned on a cryostat and stained for antibody immunohistochemically as above, with the exception that sections from the nude mice were developed using peroxidase labeled streptavidin-biotin complex (Dako, Carpinteria, Calif.) and the sections from the SCID mice were developed using two peroxidase-conjugated secondary antibodies, a goat anti-mouse IgG+IgM followed by a rabbit anti-goat IgG.
100 μg of GV39M and 3E7 or isotype-matched control IgG were injected into SCID mice bearing HT29 human colonic adenocarcinomas. Twenty-four hours later, the mice were sacrificed, exsanguinated and the tumors and tissues were removed.

[4] = tested on: Human tumor xenografts (NCI-H358 NSCLC, NCI-H460 NSCLC, HT29 colon adenocarcinoma, L540 Hodgkin's lymphoma); test: Immunohistochemistry on frozen sections of human tumor xenografts; assay type: binding, mouse; design: key: −, negative; +/−, very weak; 1+, weak; 2+, moderate; 3+, strong; 4+, very strong; conditions: acetone fixed frozen sections; 2C3 and 12D7 at 20 μg/ml, others 5-10 μg/ml
Experimental: (§5) Guinea pig line 10 hepatocellular carcinoma tumor cells (obtained from Dr. Ronald Neuman, NIH, Bethesda, Md.) were grown in strain 2 guinea pigs (NCI, Bethesda, Md.). The human tumors NCI-H358 non-small cell lung carcinoma (NSCLC), NCI-H460 NSCLC (both obtained from Dr. Adi Gazdar, UT Southwestern, Dallas, Tex.), HT29 colon adenocarcinoma (American Type Culture Collection), and L540CY Hodgkin's lymphoma (obtained from Professor V. Diehl, Cologne, Germany) were grown as xenografts in CB17 SCID mice (Charles River, Wilmington, Mass.).
as §3
The immunohistochemical reactivity of 3E7, GV39M, and 11B5 on NCI-H358 human NSCLC xenografts was determined and compared with control antibodies (an IgG of irrelevant specificity; A-20, a rabbit anti-VEGF antibody; and MECA 32, a rat anti-mouse endothelial cell antibody). 8 μm frozen sections of NCI-H358 human NSCLC grown in SCID mice were stained using an indirect immunoperoxidase technique and were counterstained with hematoxylin.

NCI-H358 NSCLC = test: In vivo tumor growth inhibition, newly implanted NCI-H358; design: species or system mouse
Experimental: as §2

[5] = target: T1, guinea pig VEGF in line 10 guinea pig tumor sections (Cavia porcellus, UniProt P26617); test: Immunohistochemistry on guinea pig line 10 tumor sections; assay type: binding; design: key: −, negative; +/−, very weak; 1+, weak; 2+, moderate; 3+, strong; 4+, very strong; conditions: acetone fixed frozen sections; 2C3 and 12D7 at 20 μg/ml, others 5-10 μg/ml
T1 construct: from tissue; host or cells: frozen sections of line 10 hepatocellular carcinoma grown in strain 2 guinea pigs
T1 sequence (P26617 1-164): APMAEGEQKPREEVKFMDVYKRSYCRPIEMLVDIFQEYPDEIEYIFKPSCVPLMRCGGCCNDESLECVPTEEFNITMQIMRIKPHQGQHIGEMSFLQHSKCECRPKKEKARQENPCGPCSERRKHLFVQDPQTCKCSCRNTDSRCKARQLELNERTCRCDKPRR
Experimental: as §5, §3

Human tumors (various) = test: Immunohistochemistry on frozen sections of human tumors; assay type: binding; design: key: −, negative; +/−, very weak; 1+, weak; 2+, moderate; 3+, strong; 4+, very strong; conditions: acetone fixed frozen sections; 2C3 and 12D7 at 20 μg/ml, others 5-10 μg/ml
Experimental: as §3, §4

[6] = tested on: human NCI-H358 NSCLC tumors; test: Localization of 2C3-GUS in SCID mice bearing NCI-H358 tumors; assay type: in vivo, mouse
[7] = Blood clearance of radioiodinated 2C3-GUS in mice; assay type: in vivo, mouse; conditions: intravenous
Source text: 2C3-GUS was radioiodinated with ^125I to a specific activity of 5×10^6 cpm/μg.

[8] = tumor-bearing mice, antibody intravenously 24 hours prior to sacrifice

mouse VEGF in mouse 3LL Lewis Lung carcinoma tumor sections, sequence (Q00731 205-317 limits assumed): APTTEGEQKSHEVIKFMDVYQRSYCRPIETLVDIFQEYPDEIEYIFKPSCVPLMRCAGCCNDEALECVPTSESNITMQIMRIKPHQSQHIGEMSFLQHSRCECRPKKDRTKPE

## 2C3 F(ab′)2: F(ab′)2 of 2C3
VEGFR2 (KDR/Fc)
  blocking of binding of VEGF to VEGFR2/Fc in solution: blocked

## 2C3: anti-VEGF monoclonal antibody, IgG2a k, hybridoma ATCC PTA 1595; blocks VEGF binding to VEGFR2 but not VEGFR1 [Clone 2C3]
HT1080 fibrosarcoma
  growth of HT1080 tumors: arrested the growth
NCI-H358 NSCLC tumors; established NCI-H358, 100 μg, prolonged treatment
  mean tumor volume after approximately 14 wk of treatment: 84 mm^3
NCI-H358 NSCLC tumors; established NCI-H358, 50-100 μg i.p. every 3-5 days, approximately 10 weeks
  mean tumor volume at the end of the study, % of the initial mean tumor volume: 30%
NCI-H358 NSCLC tumors; established NCI-H358, approximately 14 wk
  decrease in mean tumor volume: approximately 80%
NCI-H358 NSCLC tumors; established NCI-H358, end of the study (day 116)
  mean tumor weight: 0.054 g
[1]
  growth of established A673 rhabdomyosarcoma and LS174T colon adenocarcinoma tumors: significantly slowed
A673 rhabdomyosarcoma
  final tumor volume, A673 rhabdomyosarcoma: approximately 150 mm^3
[2]
  Endothelial Cell Staining Mouse Tumor (3LL): −
VEGFR2 (KDR/Flk-1)
  Blocks VEGF from binding to VEGFR2: Yes
VEGFR2 (KDR/Flk-1); 100-1000 fold excess
  effect on VEGF binding to VEGFR2 in ELISA: blocked
VEGFR2 (KDR/Flk-1); 100 fold molar excess over VEGF
  amount VEGF that bound to VEGFR2-coated ELISA wells maintained at: about 92%
VEGFR2 (KDR/Flk-1); 1000-fold molar excess over VEGF (1 nM)
  amount VEGF that bound to VEGFR2-coated wells, % of amount bound in absence of antibody: ~19%
KDR on ABAE cells
  blocking of 125I-VEGF binding to KDR: blocks VEGF from binding to KDR in a concentration dependent manner
VEGFR1 (FLT-1)
  Blocks VEGF from binding to VEGFR1: No
[3]; 2C3: NCI-H358 in nu/nu mice, 3E7, GV39M: HT29 in SCID mice, 24 hours after i.v.
  Immunohistochemical Reactivity Tumor: 3+
[3]; after i.v. injection
  localization in the HT29 human tumor model: localized strongly to the connective tissue
[3]; [8]
  Immunohistochemical Reactivity Heart: −
  Immunohistochemical Reactivity Intestine: −
  Immunohistochemical Reactivity Kidney: −
  Immunohistochemical Reactivity Liver: −
  Immunohistochemical Reactivity Lung: −
  Immunohistochemical Reactivity Spleen: −
[4]
  Endothelial Cell Staining Xenograft (various): −
NCI-H358 NSCLC; 100 μg i.p. 2 times per wk from day 1, nu/nu mice, controls approximately 1000 mm^3
  final tumor volume, NCI-H358 NSCLC: approximately 150 mm^3
NCI-H358 NSCLC; 10 or 1 μg twice per wk, NCI-H358 and A673
  prevention of tumor growth at lower doses: less effective
[5]
  Endothelial Cell Staining Guinea Pig Tumor (Line 10): −
Human tumors (various)
  Endothelial Cell Staining Hu Tumor (various): −

## 2C3-GUS [Clone 2C3-GUS]
[6]; SCID mice, subcutaneous NCI-H358
  localization after i.v. injection: specifically localized to tumor vasculature and surrounding tumor stroma
[6]; mouse, in vivo, sc
  staining of normal tissues: unstained
[7]
  t½ α of clearance from the blood: about 6 hours
  t½ β of clearance from the blood: about 25 hours
